The values that follow come from ChEMBL document CHEMBL1201862, “PubChem BioAssay data set” (2004).

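Cultured in 96-well plates, cells were exposed to test compound for 48 hours across five concentrations. The concentration for 50% growth inhibition is given as GI50.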 Calls of active or inactive are those of the source. Cut-off read from the data, not from the text of the source: active = GI50 up to about 1.1 µM and inactive = higher. Bounds are passed on as bounds.

Holding throughout (experiment): NCI tumour cell line growth inhibition, 48 h
In assay [1] the test system is 786-0.
For assay [2], the system named is HCC 2998.
The test system of assay [3] is HCT-116.
The test system of assay [4] is HL-60.
The subject of assay [5] is HOP-92.
Assay [6] concerns Hs-578T.
Assay [7] relates to MCF7.
Assay [8] concerns MDA-MB-435.
For assay [9], the system named is MDA-N.
Assay [10] relates to MOLT-4.
The test system of assay [11] is NCI-H226.
In assay [12] the test system is OVCAR-5.
The subject of assay [13] is OVCAR-8.
Assay [14] has as its system RXF 393.
Assay [15] has as its system SF-539.
Assay [16] relates to SN12C.
Assay [17] deals with SNB-19.
In assay [18] the test system is TK-10.
Assay [19] concerns U-251.
Assay [20] relates to UACC-62.

For `COC(=O)C1=CON2C3CC4CC(C3)CC(C4)C12C` (stereo not given), the GI50 in assay [1], in assay [2], in assay [3], in [4], in [5] and in assay [6] was > 100 µM (inactive) throughout. In addition, the GI50 in assay [7], in assay [8], in assay [9], in [10], in [11] and in [12] was > 100 µM (inactive) each time. Further, the GI50 in [13], in assay [14], in [15], in assay [16], in [17] and in assay [18] was > 100 µM (inactive) throughout. In addition, the GI50 in [19] and in [20] was > 100 µM (inactive) in each case.
For `CN(C)Cc1cc(C(=O)/C=C/c2ccc([N+](=O)[O-])cc2)cc(CN(C)C)c1O`, the GI50 was 2.31 µM (inactive) in [1]; 17.4 µM (inactive) in assay [2]; 2.86 µM (inactive) in assay [3]; 2.07 µM (inactive) in assay [4]; 8.83 µM (inactive) in [5]; 18.8 µM (inactive) in assay [6]. Further, the GI50 in assay [7] is 13.3 µM (inactive); in assay [8], 7.1 µM (inactive); in assay [9], 11.7 µM (inactive); in assay [10], 18.9 µM (inactive); in [11] it was 3.9 µM (inactive); in assay [12] it was 16.6 µM (inactive). Further, the GI50 in assay [13] is 25 µM (inactive); in assay [14] it was 14.2 µM (inactive); in assay [15], 18.5 µM (inactive); in [16], 7.8 µM (inactive); in assay [17] it was 83.4 µM (inactive); in assay [18], 16 µM (inactive). The GI50 is 3.18 µM (inactive) in assay [19] and 13.9 µM (inactive) in [20].
For the compound `CN(C)CCCNc1c2c(nc3ccc(Cl)cc13)CCCC2`, the GI50 in assay [1] was 10.5 µM (inactive); in [2] it was 5.27 µM (inactive); in assay [3], 6.03 µM (inactive); in assay [4], 15.9 µM (inactive); in [5] it was 10.3 µM (inactive); in assay [6], 19.1 µM (inactive). In addition, the GI50 was 12.1 µM (inactive) in assay [7]; 14.9 µM (inactive) in assay [8]; 13.5 µM (inactive) in assay [9]; 4.12 µM (inactive) in assay [10]; 22.3 µM (inactive) in assay [11]; 20 µM (inactive) in [12]. For the same compound, the GI50 in [13] was 12.8 µM (inactive); in [14] it was 12.9 µM (inactive); in [15], 13.5 µM (inactive); in assay [16], 11.8 µM (inactive); in [17], 19.1 µM (inactive); in assay [18] it was 15.2 µM (inactive). The GI50 in assay [19] is 14.9 µM (inactive); in [20], 16.9 µM (inactive).
On to `C[C@H]1[C@H]2[C@H](C[C@@]3(C)C4=CC[C@H]5C(C)(C)[C@@H](OC6OCC(O)C(O)C6O)CC[C@@]56C[C@@]46CC[C@]23C)O[C@@]2(O)[C@@H]1OC(C)(C)[C@H]2O` (stereo not given in full), for which the GI50 is 1.06 µM (active) in assay [1]; 0.681 µM (active) in assay [2]; 1.45 µM (inactive) in assay [3]; 6.47 µM (inactive) in assay [4]; 1.09 µM (active) in [5]; 0.682 µM (active) in [6]. Further, the GI50 in assay [7] was 0.867 µM (active); in assay [8], 0.984 µM (active); in assay [9], 2.28 µM (inactive); in [10], 3.96 µM (inactive); in [11], 2.44 µM (inactive); in [12], 4.75 µM (inactive). Also, the GI50 was 0.879 µM (active) in [13]; 1.2 µM (inactive) in assay [14]; 1.95 µM (inactive) in [15]; 1.06 µM (active) in assay [16]; 2.49 µM (inactive) in assay [17]; 1.17 µM (inactive) in assay [18]. In addition, the figures for the GI50 in [19] and in assay [20] were 1.69 µM (inactive) and 1.61 µM (inactive), respectively.
For the compound `CC(OP(=O)(O)O)C(N)C(=O)O` (stereo not given), the GI50 in assay [1], in assay [2], in assay [3], in [4], in assay [5] and in [6] was > 100 µM (inactive) in each case. Moreover, the GI50 in assay [7], in assay [8], in [9], in assay [10], in assay [11] and in [12] was > 100 µM (inactive) each time. In addition, the GI50 in assay [13], in assay [14], in [15], in assay [16], in assay [17] and in assay [18] was > 100 µM (inactive) each time. Moreover, the GI50 in assay [19] and in assay [20] was > 100 µM (inactive) throughout.
On to `NC1=CN(Cc2ccccc2)C2=N/C(=C\c3ccco3)C(=O)N12`, for which the GI50 in assay [1], in assay [2], in assay [3], in [4], in assay [5] and in [6] was > 100 µM (inactive) each time. In addition, the GI50 in assay [7], in [8], in assay [9], in [10], in [11] and in [12] was > 100 µM (inactive) throughout. Moreover, the GI50 in assay [13], in assay [14], in [15], in assay [16], in assay [17] and in assay [18] was > 100 µM (inactive) in each case. Also, the GI50 in assay [19] and in assay [20] was > 100 µM (inactive) in each case.
Take `C=C(CN1CC2C[C@](C(=O)OC)(c3cc4ccccc4[nH]3)C1C(OC)C2OC)S(=O)(=O)c1ccccc1` (stereo not given in full): the GI50 in assay [1] was 2.4 µM (inactive); in assay [2] it was 1.87 µM (inactive); in [3] it was 2.54 µM (inactive); in assay [4] it was 1.92 µM (inactive); in assay [5], 0.729 µM (active); in [6], 2.5 µM (inactive). Besides, the GI50 is 3.81 µM (inactive) in assay [7]; 2.29 µM (inactive) in assay [8]; 2.69 µM (inactive) in assay [9]; 0.53 µM (active) in assay [10]; 5.07 µM (inactive) in [11]; 3.71 µM (inactive) in [12]. Moreover, the GI50 in [13] was 3.14 µM (inactive); in assay [14], 3.19 µM (inactive); in [15], 4.9 µM (inactive); in assay [16], 3.27 µM (inactive); in [17], 10.8 µM (inactive); in assay [18] it was 4.85 µM (inactive). Moreover, the GI50 in [19] was 2.88 µM (inactive); in assay [20] it was 4.11 µM (inactive).
Take `CSc1c(C#N)c(O)n(-c2ccc(Cl)cc2)c(=O)c1C#N`: the GI50 in assay [1] was > 100 µM (inactive); in assay [2] it was > 100 µM (inactive); in assay [3], 63.5 µM (inactive); in assay [4], 28.1 µM (inactive); in assay [5], 30.8 µM (inactive); in assay [6] it was > 100 µM (inactive). Further, the GI50 is 64.6 µM (inactive) in [7]; > 100 µM (inactive) in assay [8]; > 100 µM (inactive) in [9]; 76.4 µM (inactive) in [10]; 48.1 µM (inactive) in [11]; > 100 µM (inactive) in [12]. In addition, the GI50 in assay [13], in [14], in assay [15], in [16], in assay [17] and in [18] was > 100 µM (inactive) in each case. The GI50 in [19] was > 100 µM (inactive); in assay [20], 44.6 µM (inactive).
For `CC1CNC(c2ccc(CN3CCC(CCCC4CCN(Cc5ccc(C6=NC(C)CN6)cc5)CC4)CC3)cc2)=N1` (stereo not given), the GI50 in assay [1] is > 100 µM (inactive); in assay [2], 14.8 µM (inactive); in [3] it was 29 µM (inactive); in [4], > 100 µM (inactive); in [5] it was 26 µM (inactive); in assay [6], > 100 µM (inactive). Further, the GI50 in assay [7] was 19.8 µM (inactive); in assay [8] it was 17.2 µM (inactive); in [9], 17.5 µM (inactive); in [10] it was 19.4 µM (inactive); in [11], 32.9 µM (inactive); in assay [12], 25.3 µM (inactive). For the same compound, the GI50 in [13] is 71.3 µM (inactive); in [14], 27.4 µM (inactive); in [15] it was 29.6 µM (inactive); in [16], 84.7 µM (inactive); in assay [17] it was 24.5 µM (inactive); in assay [18], 75.3 µM (inactive). In addition, the GI50 in [19] was 35 µM (inactive); in assay [20] it was 59.8 µM (inactive).
In the case of `CC1(C)CC(=O)c2c(nc3c4c([nH]c(-c5ccc(Br)cc5)c24)CC(C)(C)C3)C1`, the GI50 in [1] was 22 µM (inactive); in [2] it was 19.2 µM (inactive); in assay [3], 36.3 µM (inactive); in assay [4] it was 43.3 µM (inactive); in assay [5] it was 28.7 µM (inactive); in [6] it was 33 µM (inactive). For the same compound, the GI50 in assay [7] is 33 µM (inactive); in assay [8], 29.7 µM (inactive); in assay [9], 40.3 µM (inactive); in assay [10] it was 13.8 µM (inactive); in assay [11], 40.8 µM (inactive); in assay [12], 84.9 µM (inactive). The GI50 in [13] is 49.8 µM (inactive); in [14], 22.8 µM (inactive); in [15], 76.6 µM (inactive); in assay [16] it was 98.6 µM (inactive); in assay [17], 70.3 µM (inactive); in [18], 61.1 µM (inactive). Besides, the values for the GI50 in assay [19] and in assay [20] were 23.8 µM (inactive) and 53.6 µM (inactive), respectively.
